Assay results reported in patent US20070276024A1, “Methods for Treating Diseases and Conditions with Inverse Agonists and for Screening for Agents Acting as Inverse Agonists” (Inverseon , Inc., priority 2003, published 2007).
“Also recorded” adds a separate entry of the source. Where two headings read alike, the source gives them in different places.

Tests used:
[1] = tested on: asthmatic mice; assay: Airway resistance (Raw) response to methacholine in murine model of asthma; assay type: in vivo, Balb/cJ mice; details: for airway responsiveness to methacholine provocation (airway resistance, Raw) / airway hyperresponsiveness: asthmatic mice; for airway hyperresponsiveness: methacholine challenge, chronic treatment 7 days, 20 mg/kg (metoprolol 3× daily s.c.; timolol in chow)
Description: Balb/cJ mice aged 6 weeks (Jackson Animal Laboratory, Bar Harbor, Maine) were housed under specific pathogen-free conditions and fed a chicken ovalbumin-free diet. The Animal Research Ethics Boards of both the University of Houston and the Baylor College of Medicine approved all experiments reported here. […] Mice were sensitized with subcutaneous injection of 25 μg of ovalbumin adsorbed to aluminum hydroxide on protocol days 2, 9, and 16. Subsequently, mice were given 50 μL of saline solution containing 25 μg of ovalbumin intranasally, on a daily basis, from protocol days 23 through 27. A group of ovalbumin-sensitized saline-challenged mice serves as controls for systemic sensitization and respiratory challenges with ovalbumin. Prior to intranasal administrations, mice were sedated with halothane vapor.
To examine the effects of duration of β-adrenergic ligand therapy on the phenotype of the murine model of asthma, the experimental drugs were administered either acutely or chronically to different groups of asthmatic mice.
Asthmatic mice on acute therapy were given a single intravenous bolus infusion of either β-adrenergic drug or normal saline on protocol day 28, 15 minutes before airway responsiveness to methacholine was determined. […] […] […] These concentrations were chosen based on those producing therapeutic effects in mice in previously published studies. The non-asthmatic mice were fed normal chow.
On protocol day 28, mice were anesthetized, tracheotomized, and connected to a computer-controlled small animal ventilator (Flexivent, Scientific Respiratory Equipment, Inc., Montreal, Canada). Airway resistance (Raw) was measured using the forced oscillation technique. The cellular composition of bronchoalveolar lavage fluid (BALF) was also determined.
To induce airway constriction, a solution containing 150 μg/mL of acetyl-α-methylcholine chloride (methacholine) (Sigma Chemical, St. Louis, Mo.) was infused intravenously at constant rates using a syringe infusion pump (Raze Scientific Instruments, Stanford, Conn.). […] Each methacholine dose was administered for 3 to 5 minutes, during which data were sampled at 1-minute intervals and then averaged.
The complex input impedance of the respiratory system was computed and the value of the real part of respiratory system impedance at 19.75 Hz was taken to reflect the magnitude of airway resistance (Raw). To examine the degree of airway responsiveness of each animal, the values for Raw as a function of methacholine doses were plotted. The largest value for Raw achieved in response to methacholine stimulation was referred to as Rawpeak. For mice that achieved a plateau in the methacholine dose-Raw response curve, the ED50 was calculated by linear interpolation using the GraphPad Prism4 (GraphPad Software, Inc.). […] The Bonferroni test was used to examine the statistical differences between experimental groups. The effects of acute drug treatments on baseline respiratory system mechanics were assessed using a two-tailed paired t-test. A value of P<0.05 was considered significant.
For these experiments, salbutamol was used for chronic administration at 0.5 mg/kg/day with a minipump and for acute administration at 0.15 mg/kg by i.v. bolus 15 minutes prior to challenge. Alprenolol was used at a high dose of 7200 ppm in chow or at a low dose of 720 ppm in chow. Carvedilol was used at a high dose of 2400 ppm in chow or at a low dose of 720 ppm in chow.
The airway resistance (Raw) is plotted as cm H2O ml^−1 s.

[2] = target: β2-adrenergic receptor (Mus musculus, UniProt P18762); assay type: in vivo, mice; details: for level of the β2-adrenergic receptor: chronic treatment; for Bmax (receptor density) / βmax (receptor density): lung membranes, mean±SEM, n=3-5; for Bmax (receptor density): drug treatment 15 Minutes; for βmax (receptor density): drug treatment 28 Days
Description: β2-adrenergic receptor numbers were measured in asthmatic mice as follows. […] Mice were sacrificed and lung membranes were isolated as follows. Frozen lung tissue was homogenized in an ice-cold buffer containing 0.32 M sucrose and 25 mM Tris (pH 7.4) using a polytron (Pro 200, Pro Scientific, Inc.). The homogenate was centrifuged at 1000×g for 10 min at 4° C. The resulting supernatant was centrifuged at 40,000×g for 20 min at 4° C. The pellet was suspended in an ice-cold 25 mM Tris-HCl buffer (pH 7.4) and centrifuged at 40,000'g for 20 min at 4° C. The final pellet was suspended in 200 μL of 25 mM Tris-HCl (pH 7.4); membrane protein concentration was determined by BCA protein assay kit. […] The incubation was done at 37° C. for 2 h and terminated by rapid vacuum filtration through glass fiber filters. The filters were washed three times with 250 μL of cold wash buffer (25 mM Tris-HCl, pH 7.4) and the radioactivity determined in a counter. […] Receptor densities are expressed as femtomoles of sites per milligram of protein. Bmax is determined by nonlinear regression of the saturation binding curves.

[3] = tested on: tracheas from asthmatic mice; details: asthmatic mice chronically treated; cited from earlier work
[4] = tested on: patients with CHF; details: cited from earlier work
[5] = tested on: antigen-induced bronchoconstriction; details: acute administration; cited from earlier work
[6] = tested on: β-adrenergic receptor; details: U.S. Pat. No. 6,284,800; cited from earlier work
[7] = healthy volunteers; after 9 d of treatment versus first treatment day; cited from earlier work
[8] = cited from earlier work
[9] = tested on: sensitized and allergen-challenged mice; assay: Aminophylline on acute airway effects of nadolol; assay type: in vivo; details: 100 mg/kg i.p. during methacholine infusion; untreated and nadolol-treated mice
Description: Mice were sensitized to the allergen ovalbumin as described in Example 1.
At time point 1 (time=−10 min) baseline airway resistance of the mice was determined. At time point 2 (time=−5 min) methacholine was infused into mice to reach their EC70.

[10] = cited from earlier work; remark: listed apart in the source
[11] = target: β2; details: read-out: K1 values for β2 (first value); cited from earlier work
[12] = target: β3 (Homo sapiens, UniProt P13945); details: read-out: K1 values for β3; cited from earlier work
[13] = in vivo; cited from earlier work
[14] = in humans, in the presence of nadolol; cited from earlier work
[15] = long-term administration; cited from earlier work
[16] = acute: single intravenous bolus 15 minutes before methacholine
[17] = chronic administration, 28 days (in chow; salbutamol by osmotic minipump)

Chain of β2-adrenergic receptor (P18762 whole entry): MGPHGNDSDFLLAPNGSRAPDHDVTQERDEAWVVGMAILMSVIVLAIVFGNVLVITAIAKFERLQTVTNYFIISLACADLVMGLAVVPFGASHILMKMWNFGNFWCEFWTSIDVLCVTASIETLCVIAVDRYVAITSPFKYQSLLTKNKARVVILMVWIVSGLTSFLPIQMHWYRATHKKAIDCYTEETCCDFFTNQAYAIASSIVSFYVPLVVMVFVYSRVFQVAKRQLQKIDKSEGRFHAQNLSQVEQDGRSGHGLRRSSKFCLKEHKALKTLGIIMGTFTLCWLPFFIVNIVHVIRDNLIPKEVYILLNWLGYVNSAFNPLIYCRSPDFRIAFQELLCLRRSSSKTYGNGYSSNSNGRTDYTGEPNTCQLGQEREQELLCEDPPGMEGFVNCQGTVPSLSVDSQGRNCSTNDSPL
Chain of β3 (P13945 whole entry): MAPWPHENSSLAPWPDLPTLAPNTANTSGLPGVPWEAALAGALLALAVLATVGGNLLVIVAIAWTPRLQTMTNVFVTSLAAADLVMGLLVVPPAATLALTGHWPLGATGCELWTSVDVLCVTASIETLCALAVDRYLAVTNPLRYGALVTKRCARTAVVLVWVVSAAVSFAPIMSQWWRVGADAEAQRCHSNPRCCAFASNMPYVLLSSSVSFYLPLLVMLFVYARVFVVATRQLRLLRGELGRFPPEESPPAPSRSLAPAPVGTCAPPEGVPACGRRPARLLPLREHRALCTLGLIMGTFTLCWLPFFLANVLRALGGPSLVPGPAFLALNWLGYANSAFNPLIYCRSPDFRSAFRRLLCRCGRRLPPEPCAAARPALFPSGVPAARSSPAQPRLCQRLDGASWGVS

C=CCc1ccccc1OCC(O)CNC(C)C (stereo not shown) [Alprenolol, alprenolol]
Decreased Raw ([1]; 15 minutes of administration): yes
Decreased Raw ([1]; 2 days of administration): no
Decreased Raw ([1]; 28 days of administration): no
airway responsiveness to methacholine provocation (airway resistance, Raw) [1, 16]: airway responsiveness was diminished
airway responsiveness to methacholine provocation (airway resistance, Raw) [1, 17]: does not reduce airway hyperresponsiveness; also recorded: provides no benefit upon chronic administration
Increased β2AR density ([2]; 15 minutes of administration): yes
Increased β2AR density ([2]; 2 days of administration): no
Increased β2AR density ([2]; 28 days of administration): no
level of the β2-adrenergic receptor [2]: slight decrease
Bmax (receptor density) [2]: 299.5 ± 12.19 femtomoles of sites per milligram of protein
βmax (receptor density) [2]: 179.2 ± 53.05 femtomoles of sites per milligram of protein
rank of effectiveness on contraction of excised tracheas in response to methacholine [3]: most effective

CC(C)(Cc1c[nH]c2ccccc12)NCC(O)COc1ccccc1C#N (stereo not shown) [Bucindolol, bucindolol]
clinical outcome (mortality, benefit over placebo) [4]: failed to demonstrate any benefit over placebo

CC(C)NC[C@@H](O)COc1cccc2ccccc12 [D-propranolol]
antigen-induced bronchoconstriction and airway hyperresponsiveness [5]: beneficial in inhibiting antigen-induced bronchoconstriction and reducing airway hyperresponsiveness
activity with respect to β-adrenergic receptors [6]: inactive

Cc1ccc(OCC(O)C(C)NC(C)C)c2c1CCC2 (stereo not shown) [ICI-118,551]
rank of effectiveness on contraction of excised tracheas in response to methacholine [3]: then ICI-118,551

O=S(=O)(Nc1ccc(CCNC[C@H](O)c2cccnc2)cc1)c1ccc(-c2nc(-c3ccc(C(F)(F)F)cc3)cs2)cc1 [L-796568]
acute increases in plasma fatty acid concentrations [7]: completely absent after 9 d of treatment

CC(C)NC[C@H](O)COc1cccc2ccccc12 [L-form of propranolol, propranolol]
specific lung resistance [5]: increased specific lung resistance

CC(C)(C)NCC(O)c1ccc(O)c(CO)c1 (stereo not shown) [Salbutamol, salbutamol]
Decreased Raw ([1]; 15 minutes of administration): yes
Decreased Raw ([1]; 2 days of administration): no
Decreased Raw ([1]; 28 days of administration): no
airway responsiveness to methacholine provocation (airway resistance, Raw) [1, 16]: reduced the level of airway responsiveness to methacholine provocation
airway responsiveness to methacholine provocation (airway resistance, Raw) [1, 17]: no protection was observed
Increased β2AR density ([2]; 15 minutes of administration): yes
Increased β2AR density ([2]; 2 days of administration): no
Increased β2AR density ([2]; 28 days of administration): no
level of the β2-adrenergic receptor [2]: slight decrease
Bmax (receptor density) [2]: 256.5 ± 29.24 femtomoles of sites per milligram of protein
βmax (receptor density) [2]: 97.0 ± 23.02 femtomoles of sites per milligram of protein
bioavailability of inhaled drug ([8]; 10 patients with cystic fibrosis versus healthy adults): greater

Cn1c(=O)c2[nH]cnc2n(C)c1=O [aminophylline]
airway resistance after administration [9]: significant and sustained drop in airway resistance

CCCC1O[C@@H]2C[C@H]3[C@@H]4CCC5=CC(=O)C=C[C@]5(C)[C@H]4[C@@H](O)C[C@]3(C)[C@]2(C(=O)CO)O1 (stereo partly shown) [budesonide]
plasma clearance of the 2 enantiomers per kilogram of bodyweight, higher in children than adults ([10]; 6 children with asthma versus 11 healthy adults): about 50%
plasma clearance relative to the average clearance of prednisolone ([10]; in vivo): about 10 fold
systemic availability of the swallowed fraction ([10]; in vivo): 10.7±4.3%

Cc1ccc(Cl)c(OCC(O)CNC(C)(C)C)c1 (stereo not shown) [bupranolol]
Ki [11]: 1.7 nM
Ki [12]: 50 nM
half-life [13]: 1.5 h

CN[C@@H](C)[C@H](O)c1ccccc1 [ephedrine]
level of thermogenesis relative to the ephedrine-untreated level [14]: 40%

C[C@@H]1C[C@H]2[C@@H]3C[C@H](F)C4=CC(=O)C=C[C@]4(C)[C@@]3(F)[C@@H](O)C[C@]2(C)[C@@]1(O)C(=O)SCF [fluticasone]
first-pass hepatic metabolism of the systemically absorbed drug ([10]; in vivo): almost complete

COCCc1ccc(OCC(O)CNC(C)C)cc1 (stereo not shown) [metoprolol]
airway hyperresponsiveness [1]: effective in reducing airway hyperresponsiveness
clinical outcome (mortality, benefit over placebo) [4]: significant mortality reduction

OCc1cc(C(O)CNCCCCCCOCCCCc2ccccc2)ccc1O (stereo not shown) [salmeterol]
trial outcome (death rates) [15]: stopped due to increased death rates
time in which the majority of a dose is eliminated, predominantly in the feces ([8]; in vivo): ≤ 72 h

CC(C)(C)NCC(O)c1cc(O)cc(O)c1 (stereo not shown) [terbutaline]
increase of bioavailability by the oral component ([8]; from an MDI): 6.7%
absorption through the lung ([8]; healthy smokers versus healthy nonsmokers): more rapidly

CC(C)(C)NC[C@H](O)COc1nsnc1N1CCOCC1 [timolol]
airway hyperresponsiveness [1]: effective in reducing airway hyperresponsiveness
